Source: US11795177B2, “Substituted quinoline analogs as aldehyde dehydrogenase 1A1 (ALDH1A1) inhibitors” (THE UNITED STATES OF AMERICA, AS REPRESENTED BY THE …, priority 2017, dated 2023)
Counter-ions that a name gives are not always drawn.

Test system: MIA PaCa-2 cells
Test: MIA PaCa2 cell-based assay (1,536-well high-content imaging ALDEFLUOR assay)
Set-up: species or system human
Settings: Homo sapiens, 0.5 h, ALDEFLUOR BAAA substrate 500 nM, 30 minutes
Method: Example 359. MIA PaCa2 Cell-Based Assay (In Vitro Assay)
1,536-Well High-Content Imaging ALDEFLUOR Assay
The ALDEFLUOR™ kit was purchased from […] Technologies (Vancouver, Canada; #01700). MIA PaCa-2 cells (5 μL; 1,000 cells/well) were dispensed into black, optical quality (cyclic olefin copolymer) clear bottom, medium binding TC treated 1,536-well plates (Aurora Microplates, Whitefish Mont.) using a Multidrop Combi dispenser (ThermoFisher) and incubated overnight (37° C., 5% CO2, 85% RH). Media (RPMI 1640 (Life Technologies, Carlsbad, Calif.), supplemented with 2 mM L-Glutamine (Life Technologies), 10% HyClone™ fetal bovine serum (FBS, GE Healthcare, Piscataway, N.J.) and 100 U/mL penicillin and 100 μg/mL streptomycin (Life Technologies)) was subsequently removed by centrifuging plates upside down using a plate adaptor to collect media. A solution of BAAA substrate ([…] Technologies) and Hoechst 33342 (ThermoFisher, final concentrations of 500 nM and 0.5 nM, respectively) in ALDEFLUOR™ buffer ([…] Technologies #01700) was dispensed onto cells using a Multidrop Combi followed by immediate transfer (23 nL) of compound or control solutions using a Wako Pin-tool (final percentage of DMSO in the cell plates was 0.5%). Unless otherwise noted, all compounds were assayed as 16-point dilutions spanning a final concentration range of 1.4 nM to 47.8 μM. The neutral and positive assay controls were DMSO and DEAB (4.6 μM), respectively. Cells were incubated for 30 minutes or the indicated amount of time at 37° C., 5% CO2, 85% RH to allow the conversion of BAAA into BAA. Supernatant was subsequently removed by centrifugation as described above, then ALDEFLUOR™ buffer (3 μl) was dispensed by Multidrop Combi before imaging on an IN Cell 2200 (GE Healthcare).
The above assay was modified for an online robotic screening system. After cell plating and overnight incubation, 4 μL of media were removed using a 64-tip metal aspirator head on a Wako aspirator station, leaving 1 μL remaining in the well, followed by a 4 μL dispense of BAAA and Hoechst 33342 in ALDEFLUOR™ buffer, for a final concentration of 500 nM and 0.5 nM, respectively Immediately following the dispense, 23 nL of compound or control solutions were transferred using a Wako Pin-tool. Cells were incubated for 30 minutes at 37° C., 5% CO2, 85% RH, followed by a 4 μL media removal using the Wako aspirator, and a subsequent 3 μL addition of ALDEFLUOR™ buffer. Plates were then immediately read on the IN Cell 2200 as described below.
Image Acquisition and Analysis
For images captured on the IN Cell 2200 widefield automated microscope, a 10×0.45 NA Plan Apo objective lens was used to capture the entire well of the 1,536-well plate using standard DAPI (390/18×, 432/48 m) and FITC (475/28×, 525/48 m) filter sets at 50 msec and 100 msec exposures, respectively. Images were subsequently analyzed using IN Cell Investigator v1.6.2 analysis software's canned Multi-Target Analysis algorithm (GE Healthcare). Hoechst stained nuclei were identified using top hat segmentation with a minimum area of 75 μm^2 and sensitivity of 93. BAA-retaining cells captured via FITC channel, were identified using multiscale top hat segmentation with a minimum area of 100 μm^2 and a sensitivity setting of 16. […] Data were plotted using GraphPad Prism software (GraphPad, San Diego, Calif.).

| IC50 [nM] | SMILES |
| --- | --- |
| < 500 | CS(=O)(=O)N1CCN(C(=O)c2cnc3ccc(F)cc3c2N2CCC(C#N)(c3ccc(Cl)cc3)CC2)CC1 [Example 275, 4-(4-chlorophenyl)-1-(6-fluoro-3-(4-(methylsulfonyl)piperazine-1-carbonyl)quinolin-4-yl)piperidine-4-carbonitrile] |
| < 500 | CC(C)(C)c1ccc(-c2c(C(=O)N3CCN(C(=O)C4CC4)CC3)cnc3ccc(F)cc23)cc1 [Example 84, (4-(4-(tert-butyl)phenyl)-6-fluoroquinolin-3-yl)(4-(cyclopropanecarbonyl)piperazin-1-yl)methanone] |
| < 500 | CS(=O)(=O)N1CCN(C(=O)c2cnc3ccc(F)cc3c2N2CCC(C#N)(c3ccc(F)cc3)CC2)CC1 [Example 279, 1-(6-fluoro-3-(4-(methylsulfonyl)piperazine-1-carbonyl)quinolin-4-yl)-4-(4-fluorophenyl)piperidine-4-carbonitrile] |
| < 500 | CS(=O)(=O)N1CCN(C(=O)c2cnc3ccc(F)cc3c2N2CCC(C#N)(c3ccccc3F)CC2)CC1 [Example 274, 1-(6-fluoro-3-(4-(methylsulfonyl)piperazine-1-carbonyl)quinolin-4-yl)-4-(2-fluorophenyl)piperidine-4-carbonitrile] |
| < 500 | COc1ccc2ncc(C(=O)N3CCN(S(C)(=O)=O)CC3)c(N3CCC(C#N)(c4ccccc4)CC3)c2c1 [Cpd. 317, 1-(6-methoxy-3-(4-(methylsulfonyl)piperazine-1-carbonyl)quinolin-4-yl)-4-phenylpiperidine-4-carbonitrile] |
| > 10000 | O=C(c1cnc2ccccc2c1N1CCC2(CC1)OCCO2)N1CCN(C(=O)C2CC2)CC1 [Example 42, (4-(1,4-dioxa-8-azaspiro[4.5]decan-8-yl)quinolin-3-yl)(4-(cyclopropanecarbonyl)piperazin-1-yl)methanone] |
| 1000 to 10000 | CS(=O)(=O)N1CCN(C(=O)c2cnc3ccc(F)cc3c2N2CCC(O)(c3ccccc3)CC2)CC1 [Example 292, (6-fluoro-4-(4-hydroxy-4-phenylpiperidin-1-yl)quinolin-3-yl)(4-(methylsulfonyl)piperazin-1-yl)methanone] |
| 1000 to 10000 | O=C(c1cnc2ccc(Cl)cc2c1N1CCC2(CC1)OCCO2)N1CCN(C(=O)C2CC2)CC1 [Example 45, (6-chloro-4-(1,4-dioxa-8-azaspiro[4.5]decan-8-yl)quinolin-3-yl)(4-(cyclopropanecarbonyl)piperazin-1-yl)methanone] |
| 1000 to 10000 | CCS(=O)(=O)N1CCN(C(=O)c2cnc3ccc(F)cc3c2N2CCC(C)(C#N)CC2)CC1 [Example 156, 1-(3-(4-(ethylsulfonyl)piperazine-1-carbonyl)-6-fluoroquinolin-4-yl)-4-methylpiperidine-4-carbonitrile] |
| 500 to 1000 | N#CC1(CC2CC2)CCN(c2c(C(=O)N3CCN(C(=O)C4CC4)CC3)cnc3ccc(F)cc23)CC1 [Example 242, 1-(3-(4-(cyclopropanecarbonyl)piperazine-1-carbonyl)-6-fluoroquinolin-4-yl)-4-(cyclopropylmethyl)piperidine-4-carbonitrile] |
| < 500 | CS(=O)(=O)N1CCN(C(=O)c2cnc3ccsc3c2-c2ccc(C3(C#N)CC3)cc2)CC1 [Example 286] |
| > 10000 | O=C(c1cnc2ccc(F)cc2c1N1CCC2(CCCC2)CC1)N1CCN(C(=O)C2CC2)CC1 [Example 62, (4-(cyclopropanecarbonyl)piperazin-1-yl)(6-fluoro-4-(8-azaspiro[4.5]decan-8-yl)quinolin-3-yl)methanone] |
| 1000 to 10000 | CN(C)C(=O)N1CCN(C(=O)c2cnc3ccc(F)cc3c2N2CCC(C)(C#N)CC2)CC1 [Example 182, 4-(4-(4-cyano-4-methylpiperidin-1-yl)-6-fluoroquinoline-3-carbonyl)-N,N-dimethylpiperazine-1-carboxamide] |
| > 10000 | CC1(C#N)CCN(c2c(C(=O)N3CCN(S(C)(=O)=O)C(C)(C)C3)cnc3ccc(F)cc23)CC1 [Example 229, 1-(3-(3,3-dimethyl-4-(methylsulfonyl)piperazine-1-carbonyl)-6-fluoroquinolin-4-yl)-4-methylpiperidine-4-carbonitrile] |
| 1000 to 10000 | Cc1cc(F)cc2c(N3CCC4(CC3)OCCO4)c(C(=O)N3CCN(C(=O)C4CC4)CC3)cnc12 [Example 73, (4-(cyclopropanecarbonyl)piperazin-1-yl)(6-fluoro-8-methyl-4-(1,4-dioxa-8-azaspiro[4.5]decan-8-yl)quinolin-3-yl)methanone] |
| 1000 to 10000 | O=C(c1cnc2ccc(F)cc2c1N1CCC2(CC1)OCCO2)N1CCN(C(=O)C2CC2)CC1 [Example 31, (4-(cyclopropanecarbonyl)piperazin-1-yl)(6-fluoro-4-(1,4-dioxa-8-azaspiro[4.5]decan-8-yl)quinolin-3-yl)methanone] |
| > 10000 | CC(=O)N1CCN(c2c(C(=O)N3CCN(C(=O)C4CC4)CC3)cnc3ccc(F)cc23)CC1 [Cpd. 304, 1-(4-(3-(4-(cyclopropanecarbonyl)piperazine-1-carbonyl)-6-fluoroquinolin-4-yl)piperazin-1-yl)ethanone] |
| < 500 | CN(C)S(=O)(=O)N1CCN(C(=O)c2cnc3ccc(F)cc3c2-c2ccc(C3(C#N)CC3)cc2)CC1 [Example 260, 4-(4-(4-(1-cyanocyclopropyl)phenyl)-6-fluoroquinoline-3-carbonyl)-N,N-dimethylpiperazine-1-sulfonamide] |
| < 500 | N#CC1(c2ccc(-c3c(C(=O)N4CCN(C(=O)C5CC5)CC4)cnc4ccc(F)cc34)cc2)CC1 [Example 262, 1-(4-(3-(4-(cyclopropanecarbonyl)piperazine-1-carbonyl)-6-fluoroquinolin-4-yl)phenyl)cyclopropanecarbonitrile] |
| > 10000 | O=C(c1cnc2ccc(F)cc2c1N1CC2(CCCCC2)C1)N1CCN(C(=O)C2CC2)CC1 [Example 80, (4-(cyclopropanecarbonyl)piperazin-1-yl)(6-fluoro-4-(2-azaspiro[3.5]nonan-2-yl)quinolin-3-yl)methanone] |
| < 500 | COc1ccc2c(-c3ccc(C4(C#N)CC4)cc3)c(C(=O)N3CCN(S(C)(=O)=O)CC3)cnc2c1 [Cpd. 322, 1-(4-(7-methoxy-3-(4-(methylsulfonyl)piperazine-1-carbonyl)quinolin-4-yl)phenyl)cyclopropane-1-carbonitrile] |
| 1000 to 10000 | O=C(c1cnc2ccc(F)cc2c1N1CCC2(CCCCC2)CC1)N1CCN(C(=O)C2CC2)CC1 [Example 75, (4-(cyclopropanecarbonyl)piperazin-1-yl)(6-fluoro-4-(3-azaspiro[5.5]undecan-3-yl)quinolin-3-yl)methanone] |
| < 500 | CS(=O)(=O)N1CCN(C(=O)c2cnc3c(F)cc(F)cc3c2N2CCC(C#N)(c3ccccc3)CC2)CC1 [Cpd. 320, 1-(6,8-difluoro-3-(4-(methylsulfonyl)piperazine-1-carbonyl)quinolin-4-yl)-4-phenylpiperidine-4-carbonitrile] |
| 1000 to 10000 | CS(=O)(=O)N1CCN(C(=O)c2cnc3ccc(F)cc3c2N2CCC3(CC2)CC(=O)c2ccccc23)CC1 [Example 199, 1′-(6-fluoro-3-(4-(methylsulfonyl)piperazine-1-carbonyl)quinolin-4-yl)spiro[indene-1,4′-piperidin]-3(2H)-one] |
| < 500 | COc1ccc2c(N3CCC(C#N)(c4ccccc4)CC3)c(C(=O)N3CCN(S(C)(=O)=O)CC3)cnc2c1 [Cpd. 318, 1-(7-methoxy-3-(4-(methylsulfonyl)piperazine-1-carbonyl)quinolin-4-yl)-4-phenylpiperidine-4-carbonitrile] |

| SMILES | IC50 [nM] |
| --- | --- |
| COc1ccc2ncc(C(=O)N3CCN(C(=O)C4CC4)CC3)c(N3CCC4(CC3)OCCO4)c2c1 [Example 1, (4-(cyclopropanecarbonyl)piperazin-1-yl)(6-methoxy-4-(1,4-dioxa-8-azaspiro[4.5]decan-8-yl)quinolin-3-yl)methanone, TFA] | 1000 to 10000 |
